Data set [1] concerns Anc78 MalDH (LCAHa) (synthetic construct). The data set can be described thus: NADH oxidation at […] nm, OAA concentration profile. The format is biochemical. The settings on record: 3.8 M KCl, 50 mM Tris-HCl pH 7, 25 C, 0.2 mM NADH; inhibited by excess substrate.
The next data set concerns the target T1, H. mari MalDH (Haloarcula marismortui, UniProt Q07841).
T1 construct: gene mdh; tetramer about 130 kDa
T1 sequence (Q07841 1-304): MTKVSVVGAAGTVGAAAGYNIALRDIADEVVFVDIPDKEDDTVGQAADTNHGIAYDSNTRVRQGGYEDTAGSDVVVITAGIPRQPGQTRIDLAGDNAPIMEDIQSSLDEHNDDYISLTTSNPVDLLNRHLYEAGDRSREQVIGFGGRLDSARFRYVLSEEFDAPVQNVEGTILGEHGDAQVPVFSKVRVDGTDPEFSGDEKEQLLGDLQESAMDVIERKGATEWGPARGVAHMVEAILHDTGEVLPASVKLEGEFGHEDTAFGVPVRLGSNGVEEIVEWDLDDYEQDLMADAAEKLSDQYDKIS
The data set can be described thus: NADH oxidation at […] nm, OAA concentration profile. Type of data set: biochemical. The settings on record: 3.8 M KCl, 50 mM Tris-HCl pH 7, 25 C, 0.2 mM NADH; no inhibition by excess substrate.

Another data set concerns the target T2, N. maga MalDH (Natrialba magadii, UniProt D3SVD7).
T2 construct: gene mdh; tetrameric MalDH family
T2 sequence (D3SVD7 1-304): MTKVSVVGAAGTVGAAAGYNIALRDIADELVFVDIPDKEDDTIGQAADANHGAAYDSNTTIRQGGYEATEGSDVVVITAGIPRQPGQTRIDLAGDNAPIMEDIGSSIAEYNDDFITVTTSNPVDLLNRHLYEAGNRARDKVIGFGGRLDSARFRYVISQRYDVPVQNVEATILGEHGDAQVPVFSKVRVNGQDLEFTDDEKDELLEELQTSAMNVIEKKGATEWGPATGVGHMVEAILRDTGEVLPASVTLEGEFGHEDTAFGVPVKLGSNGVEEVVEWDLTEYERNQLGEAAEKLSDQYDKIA
The data set can be described thus: NADH oxidation at […] nm, OAA concentration profile. The following applies: 3.8 M KCl, 50 mM Tris-HCl pH 7, 25 C, 0.2 mM NADH; no inhibition by excess substrate. The format is biochemical.

For a further data set, the target named is T3, Anc80 MalDH (synthetic construct, UniProt Z9KM54M7L8).
T3 construct: tetramer
T3 sequence (Z9KM54M7L8 1-304): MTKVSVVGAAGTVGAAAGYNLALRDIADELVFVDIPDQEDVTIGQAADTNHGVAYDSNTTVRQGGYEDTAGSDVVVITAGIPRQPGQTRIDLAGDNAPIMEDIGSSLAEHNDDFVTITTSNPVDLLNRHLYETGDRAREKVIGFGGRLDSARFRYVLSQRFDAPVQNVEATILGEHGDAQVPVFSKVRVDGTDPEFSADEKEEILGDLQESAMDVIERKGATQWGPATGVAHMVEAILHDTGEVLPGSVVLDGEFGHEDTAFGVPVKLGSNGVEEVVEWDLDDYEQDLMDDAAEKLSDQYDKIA
The data set can be described thus: NADH oxidation at […] nm, OAA concentration profile. Type of data set: biochemical. The following applies: 3.8 M KCl, 50 mM Tris-HCl pH 7, 25 C, 0.2 mM NADH; inhibited by excess substrate.

In the next data set the target is T4, Anc88 MalDH (synthetic construct, UniProt Z9B5L9LSO7).
T4 sequence (Z9B5L9LSO7 1-304): T3 sequence (Z9KM54M7L8 1-304) with L21I, V41D, I204L, G247A, V250K
The data set can be described thus: NADH oxidation at […] nm, OAA concentration profile. Type of data set: biochemical. The settings on record: 3.8 M KCl, 50 mM Tris-HCl pH 7, 25 C, 0.2 mM NADH; no inhibition by excess substrate.

Data set [2] deals with the molecule itself. The data set can be described thus: AUC; sedimentation velocity, 20 °C, 0.1 mg/ml, 50 mM Tris pH 7.0, 1.0 M KCl.
Data set [3] deals with the molecule itself. The data set can be described thus: AUC; sedimentation velocity, 20 °C, 0.1 mg/ml, 50 mM Tris pH 7.0, 0.2 M KF, after 24 h incubation.
Data set [4] deals with the molecule itself. The data set can be described thus: AUC; sedimentation velocity, 20 °C, 0.1 mg/ml, 50 mM Tris pH 7.0, 0.1 M KCl + 0.05 M MgCl2.

Substitutions are numbered along the chain they refer to. Where “and” joins values, the source holds several entries; their conditions need not be identical. Equal entries are not always repeated.

This is an account of results in publication PMC8382911 (Molecular Biology and Evolution, 2021).

As for `O=C(O)CC(=O)C(=O)O` [oxaloacetate], the “NADH oxidation at 340 nm, OAA concentration profile” value was “Anc78 and Anc80 MalDHs show a typical phenomenon of inhibition by an excess of substrate” in data set [1]; “H. mari MalDH is not sensitive to inhibition by high concentration of OAA” at H. mari MalDH; “the inhibition by high concentration of OAA is abolished (fig. 7C)” on N. maga MalDH; “Anc78 and Anc80 MalDHs show a typical phenomenon of inhibition by an excess of substrate” on Anc80 MalDH; “(Anc88), the inhibition by high concentration of OAA is abolished (fig. 7C)” on Anc88 MalDH.

B1: Haloferax volcanii malate dehydrogenase (enzyme, UniProt Q9P9L2 1-304, looked up)
chain: MTKVSVIGAAGTVGAAAGYNLALRDVCDELVFVDIPKMEDKTVGQAADTNHGIAYDSNTVVTQGGYEDTAGSDVVVITAGIPRQPGQTRIDLAGDNAPIMDDIGSSLAEYNDDFVSITTSNPVDLLNRHLYETGDRDRHKVIGFGGRLDSARFRYVLSQRFDVPVKNVDATILGEHGDAQVPVFSKVRVDGNDPAFSADEKEEILGDLQESAMDVIERKGATQWGPATGVAHMVEAVLHDTGEVLPGSLVLDGEFGYEDTAFGVPVKLGSNGIEEVVEWDLDDYEADLMDDAAEKLRDQYDEIA
notes: malate dehydrogenase (MalDH) of Haloferax volcanii; S6-S8; Tetramer in molar KCl; the oligomeric state depends on salt type and concentration (monomer in 0.2 M KCl); also called H. volc MalDH; MalDH of H. volcanii
For the molecule B1, the “stoichiometry N” value is 4 in data set [2]; 4 and 2 in data set [3]; 4 in data set [4].
